Experiments:
α-glucosidase [1] = biological target: T1, α-glucosidase (Saccharomyces cerevisiae, UniProt P53341); experiment: α-glucosidase inhibition assay (pNPG, absorbance at 405 nm); assay type: biochemical; details: 0.1 mg/mL and 0.5 mg/mL, Figure 1
Protocol: Different concentrations (0.01, 0.1, 1, 5, and 10 mg/mL) of Pop extract samples, PBS (pH = 6.8), and α-glucosidase (5 U/mL) were mixed together with equal volumes and co-incubated at 37°C for 15 min. 20 μL pNPG (3 mM) was added to incubate for another 10 min and 150 μL Na2CO3 (0.1 mol/L) was used to stop the reaction. […] Meanwhile, the blank group without samples were simultaneously carried out and the inhibition ratios were calculated ([21], [22]).
For identified compounds, two concentrations (0.1 mg/mL and 0.5 mg/mL) of each inhibitor were prepared and added to PBS (pH = 6.8) and α-glucosidase (5 U/mL) with equal volumes. After that, 20 μL pNPG (3 mM) was added to initiate the reactions and the changes of absorbance were recorded every 20 s immediately.

α-glucosidase [2] = biological target: T1, α-glucosidase; experiment: Circular dichroism spectra, secondary structure contents of α-glucosidase; details: EA 2 mg/mL, α-glucosidase 5.0 U/mL
Protocol: The analysis of CD spectrum was performed according to the previous report with some modifications ([26]). Briefly, both α-glucosidase and EA were dissolved in PBS (pH = 6.8). […] The spectrum scanning range was 200–250 nm, the response time and scanning speed were 1 s and […], respectively.

α-glucosidase [3] = biological target: T1, α-glucosidase; set-up: method as in PMID 20232167; details: EA isolated and identified from Rosa gallica; cited from earlier work
Kunming mice = experiment: Sucrose-loading test, postprandial blood glucose; assay type: in vivo; details: gavage, 0-120 min
Protocol: Kunming mice (male, 35–40 g) were gained from Xi’an Jiaotong University (Xi’an, China). […] After gavage, the blood glucose levels were measured at 0, 15, 30, 45, 60, 90, and 120 min by glucose detection kit (Robio Co., Shanghai, China). The whole process conformed to the Guide for the Care and Use of Laboratory Animals, eighth edition (ISBN 10: 0-309-15396-4) ([22]).

α-glucosidase [4] = biological target: T1, α-glucosidase; experiment: Kinetic analysis: Lineweaver–Burk plot and inhibitory reversibility; assay type: biochemical
Protocol: Lineweaver–Burk plot was employed to determine the inhibitory type of EA against α-glucosidase ([23]). Briefly, 20 μL α-glucosidase (5 U/mL) was mixed with different concentrations (0, 10, 15, 20, 30 μg/mL) of EA and incubated at 37°C for 15 min. pNPG (1.0, 2.0, 4.0, and 8.0 × 10^–3 mol/L) was added to initiate the reaction and the changes of absorbance were recorded every 60 s immediately. The double-reciprocal plots of reaction velocity (υ) against different concentration of pNPG (1/υ vs. 1/[pNPG]) were analyzed using the Lineweaver–Burk plot to determine inhibition constant (Ki).
To determine the inhibitory reversibility of EA against α-glucosidase, different concentrations (0, 20, 40, 60, and 100 μg/mL) of EA were reacted with the range of 7.5–1 U/mL α-glucosidase, the absorbance was recorded every 60 s immediately after the pNPG (3 mM) was added ([24]).

α-glucosidase [5] = biological target: T1, α-glucosidase; experiment: Fluorescence quenching of α-glucosidase by EA (Stern–Volmer, binding and thermodynamic analysis)
Protocol: The fluorescence spectra of α-glucosidase with or without EA were measured at three different temperatures (298, 304, and 310 K) according to the previous study ([21]). Exactly, 2.5 mL α-glucosidase (15 U/mL) was titrated by continuous additions of EA (5 μL each time) to reach a final concentration range from 0 to 19.89 × 10^–6 mol/L. After 5 min of equilibration under different temperatures, the steady fluorescence emission spectra were recorded from 300 to 460 nm with an excitation wavelength of 280 nm. Additionally, the fluorescence of free EA was measured as the background. According to fluorescence spectra data, the quenching constant (Ksv), binding constant (Ka), number of binding sites (n), the binding constant of accessible fluorophores, and the values of free energy change (△G^0), △H^0 and △S^0 were calculated according the previous reports ([21], [22], [25]).
To further exploit the quenching mechanism, Ksv was calculated by Stern–Volmer equation to determine the quench type, dynamic quenching or static quenching:
(1) F0/F=1+KSV[Q]=1+Kqτ0[Q]
where F0 and F are the peak of fluorescence intensities of α-glucosidase […], respectively; Ksv is the dynamic quenching constant; Kq is the quenching rate constant; [Q] is the different concentrations of EA; τ0 is the average lifetime of fluorescence with the value of 10^–8 s.
For static quenching, the equation as follow was employed to calculate binding constant (Ka) and number of binding sites (n) between EA and α-glucosidase:
(2) lgF0-F/F=lgKa+nlg[Q]
Thermodynamic analysis was performed to further determine the binding forces between EA and α-glucosidase, and the relevant thermodynamic parameters, including△G^0,△H^0, and △S^0, were calculated by the two following equations: […]

α-glucosidase [6] = biological target: T1, α-glucosidase; experiment: Atomic force microscopy of α-glucosidase with EA; details: EA 40 μg/mL, α-glucosidase 2.0 U/mL, co-incubation 30 min

T1 sequence (P53341 whole entry): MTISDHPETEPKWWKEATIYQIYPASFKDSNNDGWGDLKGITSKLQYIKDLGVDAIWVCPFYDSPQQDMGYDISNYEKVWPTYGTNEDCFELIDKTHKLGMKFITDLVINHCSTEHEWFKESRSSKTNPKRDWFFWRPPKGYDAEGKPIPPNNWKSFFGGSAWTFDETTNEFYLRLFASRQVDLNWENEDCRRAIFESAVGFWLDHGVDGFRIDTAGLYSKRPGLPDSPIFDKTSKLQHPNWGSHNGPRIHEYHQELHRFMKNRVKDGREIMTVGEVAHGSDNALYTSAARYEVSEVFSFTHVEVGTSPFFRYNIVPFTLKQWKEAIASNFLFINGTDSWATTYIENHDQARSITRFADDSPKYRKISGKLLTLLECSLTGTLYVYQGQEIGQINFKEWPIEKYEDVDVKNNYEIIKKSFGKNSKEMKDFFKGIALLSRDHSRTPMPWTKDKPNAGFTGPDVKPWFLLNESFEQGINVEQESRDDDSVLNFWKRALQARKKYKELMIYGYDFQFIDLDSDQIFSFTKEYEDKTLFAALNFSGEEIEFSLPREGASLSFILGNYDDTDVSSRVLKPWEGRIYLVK

## O=c1c(O)c(-c2ccc(O)cc2)oc2cc(O)cc(O)c12 [kaempferol, Kaempferol]
α-glucosidase [1]
  α-glucosidase inhibitory activity of identified compounds (in words): strong activity

## O=c1oc2c(O)c(O)cc3c(=O)oc4c(O)c(O)cc1c4c23 [EA, Ellagic acid]
α-glucosidase [2]; VEA:Vα–glucosidase 25:200
  Random coil content of α-glucosidase: 28.43 ± 0.21%
  α–helix content of α-glucosidase: 29.53 ± 0.29%
  β–sheet content of α-glucosidase: 23.73 ± 0.21%
  β–turn content of α-glucosidase: 18.07 ± 0.21%
α-glucosidase [2]; VEA:Vα–glucosidase 50:200
  Random coil content of α-glucosidase: 30.47 ± 0.33%
  α–helix content of α-glucosidase: 28.17 ± 0.21%
  β–sheet content of α-glucosidase: 26.60 ± 0.22%
  β–turn content of α-glucosidase: 18.57 ± 0.29%
α-glucosidase [2]; VEA:Vα–glucosidase 100:200
  Random coil content of α-glucosidase: 32.87 ± 0.33%
  α–helix content of α-glucosidase: 24.83 ± 0.29%
  β–sheet content of α-glucosidase: 31.00 ± 0.54%
  β–turn content of α-glucosidase: 18.70 ± 0.33%
α-glucosidase [3]
  α-glucosidase inhibition (in words): almost no α-glucosidase inhibition
Kunming mice; sucrose 2 g/kg + EA 25 mg/kg
  reduction of AUC of blood glucose: 31.8%
α-glucosidase [1]
  α-glucosidase inhibitory activity of identified compounds (in words): strongest activity
α-glucosidase [4]; Lineweaver–Burk plot, lines intersect on Y axis
  inhibitory type: competitive
α-glucosidase [4]; υ vs. [α-glucosidase], EA 0-100 μg/mL
  inhibitory reversibility: reversible
α-glucosidase [5]
  fluorescence quenching mechanism: static quenching mechanism
α-glucosidase [5]; 298 K
  Ksv (quenching constant): 4.75 ± 0.01 ×10^5 L/mol
  n (number of binding sites): 0.87
  ΔG^0: -23.15 ± 0.03 kJ/mol
α-glucosidase [5]; 304 K
  Ksv (quenching constant): 4.05 ± 0.03 ×10^5 L/mol
  n (number of binding sites): 0.83
  ΔG^0: -22.30 ± 0.06 kJ/mol
α-glucosidase [5]; 310 K
  Ksv (quenching constant): 3.32 ± 0.01 ×10^5 L/mol
  n (number of binding sites): 0.86
  ΔG^0: -21.12 ± 0.05 kJ/mol
α-glucosidase [5]; at each temperature (298, 304, 310 K)
  Kq (quenching rate constant): > 2.0 × 10^10 L/mol⋅s
α-glucosidase [5]; from 298, 304 and 310 K
  ΔH^0: -73.55 ± 0.36 kJ/mol
  ΔS^0: −169.14 ± 0.33 J/mol⋅K
α-glucosidase [6]
  effect on α-glucosidase molecules observed by AFM (in words): aggregated together and formed irregular polymers

## O=C(O)c1cc(O)c(O)c(O)c1 [gallic acid, Gallic acid]
α-glucosidase [1]
  α-glucosidase inhibitory activity of identified compounds (in words): strong activity

## Oc1ccc(/C=C/c2cc(O)cc(O)c2)cc1 [resveratrol, Resveratrol]
α-glucosidase [1]
  α-glucosidase inhibitory activity of identified compounds (in words): strong inhibitory activity

## C[C@H]1O[C@H](O[C@H]2[C@H](O)[C@@H](O)[C@@H](O[C@H]3[C@H](O)[C@@H](O)C(O)O[C@@H]3CO)O[C@@H]2CO)[C@H](O)[C@@H](O)[C@@H]1N[C@H]1C=C(CO)[C@@H](O)[C@H](O)[C@H]1O (some centres unmarked) [acarbose, Acarbose, reference compound]
Kunming mice; sucrose 2 g/kg + acarbose 50 mg/kg
  reduction of AUC of blood glucose: 36.4%
